From patent publication US20220177508A1, “C10-Cyclic Substituted 13-Membered Macrolides and Uses Thereof” (Zikani Therapeutics, Inc., priority 2018, published 2022) come the findings set out here.

Converted amounts (≈) assume the structure as drawn.

What all share (type): cell-based
One assay concerns K. pneumoniae MP-648. The experiment in a line: Broth dilution MIC determination (CLSI), K. pneumoniae MP-648. The conditions noted are these: Klebsiella pneumoniae, MP648; strain MP-648, broth dilution.
In another assay the test system is P. aeruginosa MP-3. Nature of the assay: Broth dilution MIC determination (CLSI), P. aeruginosa MP-3. The conditions noted are these: Pseudomonas aeruginosa, MP3; strain MP-3, broth dilution.
Another assay deals with E. coli MP-4. The experiment in a line: Broth dilution MIC determination (CLSI), E. coli MP-4. The conditions noted are these: Escherichia coli, MP4; strain MP-4, broth dilution; read-out: MIC E. coli MP-4.
The test system of the next assay is S. aureus MP-12. Nature of the assay: Broth dilution MIC determination (CLSI), S. aureus MP-12. The conditions noted are these: Staphylococcus aureus, MP12; strain MP-12, broth dilution.
Another assay concerns K. pneumoniae MP-546. Nature of the assay: Broth dilution MIC determination (CLSI), K. pneumoniae MP-546. The conditions noted are these: Klebsiella pneumoniae, MP546; strain MP-546, broth dilution.
The subject of the next assay is A. baumannii MP-15. The experiment in a line: Broth dilution MIC determination (CLSI), A. baumannii MP-15. To be noted: Acinetobacter baumannii, MP15; strain MP-15, broth dilution; read-out: MIC A. baumanii MP-15.

For `CO[C@]1(C)C[C@@H](C)CN(C)[C@H](C2CN(CC3CCOC3)C2)COC(=O)C(C)(C)C(=O)[C@H](C)[C@H]1O[C@@H]1O[C@H](C)C[C@H](N(C)C)[C@H]1O` (stereo partly drawn) [Compound 127, (3R,6R,8R,9R,10R)-9-(((2S,3R,4S,6R)-4-(dimethylamino)-3-hydroxy-6-methyltetrahydro-2H-pyran-2-yl)oxy)-8-methoxy-4,6,8,10,12,12-hexamethyl-3-(1-((tetrahydrofuran-3-yl)methyl)azetidin-3-yl)-1-oxa-4-azacyclotridecane-11,13-dione], the MIC is 4 to 32 µg/mL (≈ 6.25 to 50 µM) with K. pneumoniae MP-648; > 32 µg/mL in the assay on P. aeruginosa MP-3; < 4 µg/mL in the assay on E. coli MP-4; 4 to 32 µg/mL (≈ 6.25 to 50 µM) against S. aureus MP-12; 4 to 32 µg/mL (≈ 6.25 to 50 µM) in the assay with K. pneumoniae MP-546; > 32 µg/mL in the assay with A. baumannii MP-15.

Turning to `CO[C@]1(C)C[C@@H](C)CN(C)[C@H]([C@H]2C[C@@H](N(C)C)C2)COC(=O)C(C)(C)C(=O)[C@H](C)[C@H]1O[C@@H]1O[C@H](C)C[C@H](N(C)C)[C@H]1O` [Compound 128, (3R,6R,8R,9R,10R)-9-(((2S,3R,4S,6R)-4-(dimethylamino)-3-hydroxy-6-methyltetrahydro-2H-pyran-2-yl)oxy)-3-((1s,3S)-3-(dimethylamino)cyclobutyl)-8-methoxy-4,6,8,10,12,12-hexamethyl-1-oxa-4-azacyclotridecane-11,13-dione], the minimum inhibitory concentration (MIC) is 4 to 32 µg/mL (≈ 6.69 to 53.5 µM) against K. pneumoniae MP-648; > 32 µg/mL against P. aeruginosa MP-3; < 4 µg/mL in the assay with E. coli MP-4; > 32 µg/mL in the assay with S. aureus MP-12; 4 to 32 µg/mL (≈ 6.69 to 53.5 µM) with K. pneumoniae MP-546; > 32 µg/mL with A. baumannii MP-15.

In the case of `CO[C@]1(C)C[C@@H](C)CN(C)[C@H]([C@H]2C[C@H](N(C)CC(C)C)C2)COC(=O)C(C)(C)C(=O)[C@H](C)[C@H]1O[C@@H]1O[C@H](C)C[C@H](N(C)C)[C@H]1O` [Compound 131, (3R,6R,8R,9R,10R)-9-(((2S,3R,4S,6R)-4-(dimethylamino)-3-hydroxy-6-methyltetrahydro-2H-pyran-2-yl)oxy)-3-((1r,3R)-3-(isobutyl(methyl)amino)cyclobutyl)-8-methoxy-4,6,8,10,12,12-hexamethyl-1-oxa-4-azacyclotridecane-11,13-dione], the MIC was < 4 µg/mL in the assay on K. pneumoniae MP-648; > 32 µg/mL against P. aeruginosa MP-3; < 4 µg/mL in the assay on E. coli MP-4; 4 to 32 µg/mL (≈ 6.25 to 50 µM) in the assay with S. aureus MP-12; < 4 µg/mL with K. pneumoniae MP-546; 4 to 32 µg/mL (≈ 6.25 to 50 µM) in the assay on A. baumannii MP-15.

`CO[C@]1(C)C[C@@H](C)CN(C)[C@H](C2CN(Cc3cc(C)on3)C2)COC(=O)C(C)(C)C(=O)[C@H](C)[C@H]1O[C@@H]1O[C@H](C)C[C@H](N(C)C)[C@H]1O` [Compound 132, (3R,6R,8R,9R,10R)-9-(((2S,3R,4S,6R)-4-(dimethylamino)-3-hydroxy-6-methyltetrahydro-2H-pyran-2-yl)oxy)-8-methoxy-4,6,8,10,12,12-hexamethyl-3-(1-((5-methylisoxazol-3-yl)methyl)azetidin-3-yl)-1-oxa-4-azacyclotridecane-11,13-dione]: the MIC against K. pneumoniae MP-648 is > 32 µg/mL; in the assay on P. aeruginosa MP-3, > 32 µg/mL; in the assay with E. coli MP-4 it was 4 to 32 µg/mL (≈ 6.15 to 49.2 µM); against S. aureus MP-12, 4 to 32 µg/mL (≈ 6.15 to 49.2 µM); against K. pneumoniae MP-546, 4 to 32 µg/mL (≈ 6.15 to 49.2 µM); in the assay on A. baumannii MP-15, > 32 µg/mL.

As to `CCN(C)CCCC(=O)N1CC([C@@H]2COC(=O)C(C)(C)C(=O)[C@H](C)[C@@H](O[C@@H]3O[C@H](C)C[C@H](N(C)C)[C@H]3O)[C@](C)(OC)C[C@@H](C)CN2C)C1` [Compound 135, (3R,6R,8R,9R,10R)-9-(((2S,3R,4S,6R)-4-(dimethylamino)-3-hydroxy-6-methyltetrahydro-2H-pyran-2-yl)oxy)-3-(1-(4-(ethyl(methyl)amino)butanoyl)azetidin-3-yl)-8-methoxy-4,6,8,10,12,12-hexamethyl-1-oxa-4-azacyclotridecane-11,13-dione], the MIC was 4 to 32 µg/mL (≈ 5.86 to 46.9 µM) in the assay with K. pneumoniae MP-648; > 32 µg/mL against P. aeruginosa MP-3; 4 to 32 µg/mL (≈ 5.86 to 46.9 µM) in the assay on E. coli MP-4; > 32 µg/mL with S. aureus MP-12; > 32 µg/mL against K. pneumoniae MP-546; > 32 µg/mL in the assay on A. baumannii MP-15.

`CCCN1CC([C@@H]2[C@@H](C)OC(=O)C(C)(C)C(=O)[C@H](C)[C@@H](O[C@@H]3O[C@H](C)C[C@H](N(C)C)[C@H]3O)[C@](C)(OC)C[C@@H](C)CN2C)C1` [Compound 136, (2R,3R,6R,8R,9R,10R)-9-(((2S,3R,4S,6R)-4-(dimethylamino)-3-hydroxy-6-methyltetrahydro-2H-pyran-2-yl)oxy)-8-methoxy-2,4,6,8,10,12,12-heptamethyl-3-(1-propylazetidin-3-yl)-1-oxa-4-azacyclotridecane-11,13-dione]: the MIC against K. pneumoniae MP-648 is > 32 µg/mL; in the assay with P. aeruginosa MP-3, > 32 µg/mL; in the assay with E. coli MP-4, 4 to 32 µg/mL (≈ 6.54 to 52.3 µM); in the assay on S. aureus MP-12, > 32 µg/mL; in the assay on K. pneumoniae MP-546, > 32 µg/mL; with A. baumannii MP-15 it was > 32 µg/mL.

For `CO[C@]1(C)C[C@@H](C)CN(C)[C@H](C2CN(C(=O)CN3CCCC3)C2)COC(=O)C(C)(C)C(=O)[C@H](C)[C@H]1O[C@@H]1O[C@H](C)C[C@H](N(C)C)[C@H]1O` [Compound 138, (3R,6R,8R,9R,10R)-9-(((2S,3R,4S,6R)-4-(dimethylamino)-3-hydroxy-6-methyltetrahydro-2H-pyran-2-yl)oxy)-8-methoxy-4,6,8,10,12,12-hexamethyl-3-(1-(2-(pyrrolidin-1-yl)acetyl)azetidin-3-yl)-1-oxa-4-azacyclotridecane-11,13-dione], the MIC in the assay on K. pneumoniae MP-648 was 4 to 32 µg/mL (≈ 6 to 48 µM); against P. aeruginosa MP-3, > 32 µg/mL; with E. coli MP-4, < 4 µg/mL; against S. aureus MP-12 it was 4 to 32 µg/mL (≈ 6 to 48 µM); in the assay with K. pneumoniae MP-546, < 4 µg/mL; in the assay on A. baumannii MP-15, > 32 µg/mL.

For the molecule `CO[C@]1(C)C[C@@H](C)CN(C)[C@H](C2CN(C(=O)CCCN(C)C)C2)COC(=O)C(C)(C)C(=O)[C@H](C)[C@H]1O[C@@H]1O[C@H](C)C[C@H](N(C)C)[C@H]1O` [Compound 139, (3R,6R,8R,9R,10R)-9-(((2S,3R,4S,6R)-4-(dimethylamino)-3-hydroxy-6-methyltetrahydro-2H-pyran-2-yl)oxy)-3-(1-(4-(dimethylamino)butanoyl)azetidin-3-yl)-8-methoxy-4,6,8,10,12,12-hexamethyl-1-oxa-4-azacyclotridecane-11,13-dione], the MIC with K. pneumoniae MP-648 is > 32 µg/mL; in the assay on P. aeruginosa MP-3, > 32 µg/mL; in the assay on E. coli MP-4, 4 to 32 µg/mL (≈ 5.98 to 47.8 µM); with S. aureus MP-12 it was > 32 µg/mL; with K. pneumoniae MP-546, > 32 µg/mL; in the assay with A. baumannii MP-15 it was > 32 µg/mL.

With `CCCN1CCC([C@]2(C)COC(=O)C(C)(C)C(=O)[C@H](C)[C@@H](O[C@@H]3O[C@H](C)C[C@H](N(C)C)[C@H]3O)[C@](C)(OC)C[C@@H](C)CN2C)CC1` [Compound 143, (3R,6R,8R,9R,10R)-9-(((2S,3R,4S,6R)-4-(dimethylamino)-3-hydroxy-6-methyltetrahydro-2H-pyran-2-yl)oxy)-8-methoxy-3,4,6,8,10,12,12-heptamethyl-3-(1-propylpiperidin-4-yl)-1-oxa-4-azacyclotridecane-11,13-dione], the minimum inhibitory concentration (MIC) in the assay on K. pneumoniae MP-648 is < 4 µg/mL; with P. aeruginosa MP-3 it was > 32 µg/mL; in the assay on E. coli MP-4, < 4 µg/mL; against S. aureus MP-12, > 32 µg/mL; with K. pneumoniae MP-546, < 4 µg/mL; in the assay with A. baumannii MP-15, > 32 µg/mL.

One may read the MIC as the lowest concentration that inhibits growth of the organism.
